According to patent US8198273B2, “Compounds and methods for kinase modulation, and indications therefor” (Plexxikon Inc., priority 2009, dated 2012):

Experiments:
[1] = Relative solubility by turbidity in aqueous buffers of varying pH; assay type: physicochemical; settings: for turbidity threshold (L, M, H) 7.4: HEPES pH 7.4; for turbidity threshold (L, M, H) 4.5: SIF pH 4.5; for turbidity threshold (L, M, H) 6.8: SIF pH 6.8; for turbidity threshold (L, M, H) 1.4: buffer pH 1.4 (SGF)
How it was run: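 Turbidity endpoint: concentration where optical density at 490, 535 and 650 nm exceeds 0.01, three-wavelength average used. Buffers at pH 1.5, 4.5, 6.8 and 7.4; DMSO serial dilutions of 25 mM stock spiked 1 μL into 99 μL buffer. Low <31.3, moderate 31.3–250, high >250 μM.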

CYP2C19 = CYP2C19 (Homo sapiens, UniProt P33261); experiment: CYP2C19 inhibition (fluorescent substrate); assay type: in vitro ADME; settings: CYP2C19, CEC substrate; read-out: Cyp IC50 2C19
How it was run: (§1)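 Human CYP activity was followed by the fluorescence of the metabolized product of a known substrate, which falls as metabolism is inhibited. Compounds from 100 mM DMSO stocks were serially diluted 1:1 over 10 points in co-factor mix and preincubated 10 min at 37 °C. IC50 was fitted from signal versus concentration.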

c-Raf-1 = c-Raf-1 (Homo sapiens, UniProt P04049); experiment: c-Raf-1 biochemical kinase inhibition (AlphaScreen, biotin-MEK1 substrate); settings: 100 μM ATP
How it was run: (§2)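 Raf kinases phosphorylating biotin-MEK1, reaction started with ATP at 100 μM final. Compounds tested at 8 points by serial dilution from a 0.1 mM DMSO stock.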

CYP2D6 = CYP2D6 (Homo sapiens, UniProt P10635); experiment: CYP2D6 inhibition (fluorescent substrate); assay type: in vitro ADME; settings: CYP2D6, AMMC substrate; read-out: Cyp IC50 2D6
How it was run: as §1

B-Raf V600E = B-Raf V600E (Homo sapiens, UniProt P15056, V600E); experiment: B-Raf V600E biochemical kinase inhibition (AlphaScreen, biotin-MEK1 substrate); settings: 100 μM ATP
How it was run: as §2

Sequence of CYP2C19 (P33261 whole entry): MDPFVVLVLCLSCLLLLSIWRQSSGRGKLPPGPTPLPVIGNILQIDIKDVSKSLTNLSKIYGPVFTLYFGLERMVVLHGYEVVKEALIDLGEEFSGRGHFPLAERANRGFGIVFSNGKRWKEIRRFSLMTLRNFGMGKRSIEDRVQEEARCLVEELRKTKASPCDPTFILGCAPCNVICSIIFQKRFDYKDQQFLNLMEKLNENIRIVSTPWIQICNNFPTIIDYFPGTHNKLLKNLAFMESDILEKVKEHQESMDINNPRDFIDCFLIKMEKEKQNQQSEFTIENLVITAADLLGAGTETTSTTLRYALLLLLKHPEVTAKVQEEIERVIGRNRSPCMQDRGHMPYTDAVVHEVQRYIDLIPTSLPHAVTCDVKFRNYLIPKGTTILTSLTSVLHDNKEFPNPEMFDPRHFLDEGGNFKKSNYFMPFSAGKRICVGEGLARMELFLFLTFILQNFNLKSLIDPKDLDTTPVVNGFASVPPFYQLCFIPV
Sequence of B-Raf V600E (P15056 whole entry V600E): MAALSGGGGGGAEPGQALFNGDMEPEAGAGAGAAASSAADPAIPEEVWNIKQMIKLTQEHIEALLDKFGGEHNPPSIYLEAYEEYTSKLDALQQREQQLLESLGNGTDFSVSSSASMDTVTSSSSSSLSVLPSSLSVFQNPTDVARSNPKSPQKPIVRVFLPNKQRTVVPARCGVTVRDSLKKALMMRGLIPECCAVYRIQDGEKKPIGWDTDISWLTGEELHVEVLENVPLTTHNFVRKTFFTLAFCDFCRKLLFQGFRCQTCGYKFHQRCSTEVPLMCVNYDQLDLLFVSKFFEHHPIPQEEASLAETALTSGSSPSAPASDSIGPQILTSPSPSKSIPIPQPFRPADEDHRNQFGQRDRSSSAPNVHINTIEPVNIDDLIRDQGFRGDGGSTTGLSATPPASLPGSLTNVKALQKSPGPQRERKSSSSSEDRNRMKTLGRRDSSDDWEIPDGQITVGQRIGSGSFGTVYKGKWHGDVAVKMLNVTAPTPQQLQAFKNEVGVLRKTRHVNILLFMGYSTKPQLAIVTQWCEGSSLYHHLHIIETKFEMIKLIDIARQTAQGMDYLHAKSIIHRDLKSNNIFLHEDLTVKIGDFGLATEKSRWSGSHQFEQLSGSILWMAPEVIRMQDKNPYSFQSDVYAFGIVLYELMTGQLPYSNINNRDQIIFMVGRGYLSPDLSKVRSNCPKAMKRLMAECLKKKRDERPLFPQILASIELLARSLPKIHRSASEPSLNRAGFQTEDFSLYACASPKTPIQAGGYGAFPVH
Sequence of CYP2D6 (P10635 whole entry): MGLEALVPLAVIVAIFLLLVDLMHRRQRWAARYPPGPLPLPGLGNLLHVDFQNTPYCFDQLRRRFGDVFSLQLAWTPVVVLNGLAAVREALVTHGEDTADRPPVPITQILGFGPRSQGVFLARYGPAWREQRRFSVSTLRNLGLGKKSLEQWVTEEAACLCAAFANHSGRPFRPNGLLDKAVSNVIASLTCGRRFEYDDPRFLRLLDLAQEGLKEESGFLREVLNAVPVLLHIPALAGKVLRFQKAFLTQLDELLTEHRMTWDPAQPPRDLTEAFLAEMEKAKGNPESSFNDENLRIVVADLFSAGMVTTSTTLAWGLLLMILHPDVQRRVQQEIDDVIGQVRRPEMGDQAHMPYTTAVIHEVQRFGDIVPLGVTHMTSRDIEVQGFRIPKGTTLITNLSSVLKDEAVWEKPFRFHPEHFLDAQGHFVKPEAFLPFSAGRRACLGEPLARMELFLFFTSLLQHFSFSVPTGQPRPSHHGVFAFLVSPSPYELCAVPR
Sequence of c-Raf-1 (P04049 whole entry): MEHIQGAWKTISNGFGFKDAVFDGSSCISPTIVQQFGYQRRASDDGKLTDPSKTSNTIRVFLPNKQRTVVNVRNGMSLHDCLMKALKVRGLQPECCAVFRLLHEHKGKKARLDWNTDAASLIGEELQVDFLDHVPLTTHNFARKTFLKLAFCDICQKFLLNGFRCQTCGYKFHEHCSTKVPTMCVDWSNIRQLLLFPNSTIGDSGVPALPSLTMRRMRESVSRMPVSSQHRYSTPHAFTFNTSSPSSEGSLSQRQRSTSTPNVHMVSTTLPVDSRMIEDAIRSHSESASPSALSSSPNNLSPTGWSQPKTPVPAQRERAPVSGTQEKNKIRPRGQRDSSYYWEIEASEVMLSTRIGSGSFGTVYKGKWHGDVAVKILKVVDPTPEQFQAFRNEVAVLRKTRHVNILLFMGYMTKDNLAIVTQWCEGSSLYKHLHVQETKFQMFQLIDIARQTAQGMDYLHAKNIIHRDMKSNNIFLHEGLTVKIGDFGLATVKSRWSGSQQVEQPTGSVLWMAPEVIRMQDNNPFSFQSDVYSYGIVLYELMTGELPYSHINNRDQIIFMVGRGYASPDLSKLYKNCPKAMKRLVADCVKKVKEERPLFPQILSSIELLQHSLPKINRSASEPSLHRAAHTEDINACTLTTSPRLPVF

Row | SMILES | IC50 (CYP2C19) | IC50 (c-Raf-1) | IC50 (CYP2D6) | IC50 (B-Raf V600E) | turbidity threshold (L, M, H) 7.4 [1] | turbidity threshold (L, M, H) 4.5 [1] | turbidity threshold (L, M, H) 6.8 [1] | turbidity threshold (L, M, H) 1.4 [1]
1 | N#Cc1cnc2[nH]cc(C(=O)c3cccc(NS(=O)(=O)c4ccccc4)c3F)c2c1 [P-2056, N-[3-(5-Cyano-1H-pyrrolo[2,3-b]pyridine-3-carbonyl)-2-fluoro-phenyl]-benzenesulfonamide] | > 10 µM | < 0.01 µM | > 10 µM | < 0.01 µM | M (moderate solubility if the threshold concentration is 31.3 μM to 250 μM) | L (low solubility if the threshold concentration is <31.3 04) | M (moderate solubility if the threshold concentration is 31.3 μM to 250 μM) | L (low solubility if the threshold concentration is <31.3 04)
2 | CCCS(=O)(=O)Nc1ccc(F)c(C(=O)c2c[nH]c3ncc(-c4ccc(OCCN5CCOCC5)nc4)cc23)c1F [P-2232, Propane-1-sulfonic acid (2,4-difluoro-3-{5-[6-(2-morpholin-4-yl-ethoxy)-pyridin-3-yl]-1H-pyrrolo[2,3-b]pyridine-3-carbonyl}-phenyl)-amide] | > 10 µM | < 0.01 µM | > 10 µM | < 0.01 µM | L (low solubility if the threshold concentration is <31.3 04) | M (moderate solubility if the threshold concentration is 31.3 μM to 250 μM) | L (low solubility if the threshold concentration is <31.3 04) | M (moderate solubility if the threshold concentration is 31.3 μM to 250 μM)

More lines, main results first:

Row | IC50 (CYP2C19) | IC50 (c-Raf-1) | IC50 (CYP2D6) | IC50 (B-Raf V600E) | SMILES | turbidity threshold (L, M, H) 7.4 [1] | turbidity threshold (L, M, H) 4.5 [1] | turbidity threshold (L, M, H) 6.8 [1] | turbidity threshold (L, M, H) 1.4 [1]
3 | 5 to 10 µM | < 0.01 µM | > 10 µM | < 0.01 µM | CCCS(=O)(=O)Nc1ccc(F)c(C(=O)c2c[nH]c3ncc(-c4ccc(NC(C)=O)nc4)cc23)c1F [P-2193, N-(5-{3-[2,6-Difluoro-3-(propane-1-sulfonylamino)-benzoyl]-1H-pyrrolo[2,3-b]pyridin-5-yl}-pyridin-2-yl)-acetamide] | L (low solubility if the threshold concentration is <31.3 04) | L (low solubility if the threshold concentration is <31.3 04) | L (low solubility if the threshold concentration is <31.3 04) | M (moderate solubility if the threshold concentration is 31.3 μM to 250 μM)
4 | 5 to 10 µM | < 0.01 µM | > 10 µM | < 0.01 µM | C#Cc1cnc2[nH]cc(C(=O)c3c(F)ccc(NS(=O)(=O)CCC)c3F)c2c1 [P-2260, Propane-1-sulfonic acid [3-(5-ethynyl-1H-pyrrolo[2,3-b]pyridine-3-carbonyl)-2,4-difluoro-phenyl]-amide] | L (low solubility if the threshold concentration is <31.3 04) | L (low solubility if the threshold concentration is <31.3 04) | L (low solubility if the threshold concentration is <31.3 04) | L (low solubility if the threshold concentration is <31.3 04)
5 | < 5 µM | < 0.01 µM | > 10 µM | < 0.01 µM | N#Cc1cnc2[nH]cc(C(=O)c3c(F)ccc(NS(=O)(=O)c4ccccc4)c3F)c2c1 [P-2046, N-[3-(5-Cyano-1H-pyrrolo[2,3-b]pyridine-3-carbonyl)-2,4-difluoro-phenyl]-benzenesulfonamide] | M (moderate solubility if the threshold concentration is 31.3 μM to 250 μM) | L (low solubility if the threshold concentration is <31.3 04) | M (moderate solubility if the threshold concentration is 31.3 μM to 250 μM) | L (low solubility if the threshold concentration is <31.3 04)
